# Molecular target: T1, Human GnRH receptor (Homo sapiens, UniProt P30968)
# T1 construct: expressed in transfected cells; host or cells: CHO (Chinese hamster ovary) cells, membrane fraction
# T1 sequence (P30968 1-328): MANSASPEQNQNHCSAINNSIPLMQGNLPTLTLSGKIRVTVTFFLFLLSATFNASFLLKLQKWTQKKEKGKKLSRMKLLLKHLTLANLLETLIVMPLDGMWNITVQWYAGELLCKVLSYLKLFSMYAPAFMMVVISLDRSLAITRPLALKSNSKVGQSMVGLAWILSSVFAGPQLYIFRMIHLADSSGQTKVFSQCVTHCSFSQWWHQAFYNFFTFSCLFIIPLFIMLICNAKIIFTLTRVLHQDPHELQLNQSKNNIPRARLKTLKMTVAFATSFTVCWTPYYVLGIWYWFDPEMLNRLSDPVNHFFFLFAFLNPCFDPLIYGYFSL
# Experiment: Human GnRH receptor binding inhibition assay (125I-leuprolerin, membrane fraction of CHO cells expressing human GnRH receptors)
# Details: CHO cell membrane fraction with human GnRH receptors, 25° C., 60 minutes, concentration series, Hill plot, read-out: Binding inhibitory activity (IC50)
# Description: Human GnRH receptor binding inhibition assay
# (A) Preparation of ^125 I-leuprolerin
# Ten (10) μl of 3×10^-4 M aqueous leuprolerin solution and 10 μl of 0.01 mg/ml lactoperoxidase solution were taken in a tube, and 10 μl of Na^125 I solution (37 MBq) was added. After stirring, 10 μl of 0.001% H2 O2 was added and the reaction was conducted at room temperature for 20 minutes. The reaction was stopped by adding 700 μl of 0.05% TFA solution, and the reaction mixture was purified by reversed HPLC. The HPLC parameters are shown below. The retention time of ^125 I-leuprolerin was 26-27 minutes.
# Column: TSKgel ODS-80™ CTR (4.6 mm×10 cm)
# Eluent: Solvent A (0.05%TFA) Solvent B (40%CH3 CN-0.05%TFA)
# Min. 0 (100% Solvent A)--Min. 3 (100% Solvent A)--Min. 7 (50% Solvent A+50% Solvent B)--Min. 40 (100% Solvent B) Elution temperature: room temperature Elution flow rate: 1 ml/min.
# CHO cells (10^9 cells) with human GnRH receptors expressed were floated on phosphate-buffered saline containing EDTA (PBS-EDTA) and centrifuged at 100×g for 5 minutes. To the pellet obtained was added 10 ml of a cell homogenate buffer (10 mM NaHCO3, 5 mM EDTA, pH 7.5) and the mixture was homogenized using a Polytron homogenizer. The homogenate was centrifuged at 400×g for 15 minutes and the supernatant was taken in an ultracentrifuge tube and recentrifuged at 100,000×g for 1 hour. The membrane fraction thus obtained as a pellet was suspended in 2 ml of assay buffer and centrifuged at 100,000×g for 1 hour. The membrane fraction recovered was resuspended in 20 ml of assay buffer and the suspension was portioned, stored at -80° C., and thawed when needed.
# (C) Determination of the ^125 I-leuprolerin binding inhibition rate
# The membrane fraction prepared in Step (B) was diluted with assay buffer to 200 μg/ml and the dilution was portioned into tubes, 188 μl per tube. Then, 2 μl of 2 mM solution of the test compound in 60% DMSO and 10 μl of 38 nM ^125 I-leuprolerin solution in the same solvent were simultaneously added to the tubes. To determine the maximum binding, a test mixture of 2 μl of 60% DMSO and 10 μl of 38 nM ^125 I-leuprolerin solution in the same solvent was prepared. For the determination of nonspecific binding, a test mixture of 2 μl of 100 μM leuprolerin solution in 60% DMSO and 10 μl of 38 nM solution of ^125 I-leuprolerin in the same solvent was also prepared. The mixtures were respectively allowed to react at 25° C. for 60 minutes and the reaction product in each tube was filtered through a poly(ethylene imine)-treated Whatman glass filter (GF-F) under suction. The radioactivity of ^125 I-leuprolerin remaining on the filter was determined using a γ-counter.
# Using the measured values, the following equation was calculated to find the binding inhibition rate for each test compound.
# Binding inhibition (%)=(TB-SB)/(TB-NSB)×100
# [SB: radioactivity with the compound added
# TB: maximum bound radioactivity
# NBS: nonspecifically bound radioactivity]
# Using a concentration series of each test compound, the concentration of the compound which inhibited the binding by 50% (IC50) was calculated by Hill plot.
row,SMILES,IC50 [nM]
1,"O=C(NCc1ccccc1)Nc1ccc(CN2C(=O)[C@H]3CCC[C@H]3N(C(=O)CN3C(=O)c4ccccc4C3=O)c3ccccc32)cc1 (relative stereo) [Example 25, (3aR*,10aS*)-9-[4-(3-benzylureido)benzyl]-4-(phthalimidoacetyl)-2,3,3a,4,9,10a-hexahydrobenzo[b]cyclopenta[e][1,4]diazepin-10(1H)-one]",30
2,"O=C(Nc1ccc(CN2C(=O)[C@H]3CCC[C@H]3N(C(=O)CN3C(=O)c4ccccc4C3=O)c3ccccc32)cc1)c1ccc(Cl)cc1 (relative stereo) [Example 11, (3aR*,10aS*)-9-[4-(4-Chlorobenzamido)benzyl]-4-(phthalimidoacetyl)-2,3,3a,4,9,10a-hexahydrobenzo[b]cyclopenta[e][1,4]diazepin-10(1H)-one]",200
3,"COc1ccc(C(=O)Nc2ccc(CN3C(=O)[C@H]4CCC[C@H]4N(C(=O)CN4C(=O)c5ccccc5C4=O)c4ccccc43)cc2)cc1 (relative stereo) [Example 15, (3aR*,10aS*)-9-[4-(4-Methoxybenzamido)benzyl]-4-(phthalimidoacetyl)-2,3,3a,4,9,10a-hexahydrobenzo[b]cyclopenta[e][1,4]diazepin-10(1H)-one]",200
4,"O=C(NCCc1ccccc1)Nc1ccc(CN2C(=O)[C@H]3CCC[C@H]3N(C(=O)CN3C(=O)c4ccccc4C3=O)c3ccccc32)cc1 (relative stereo) [Example 30, (3aR*,10aS*)-9-[4-[3-(2-Phenylethyl)ureido]benzyl]-4-(phthalimidoacetyl)-2,3,3a,4,9,10a-hexahydrobenzo[b]-cyclopenta[e][1,4]diazepin-10(1H)-one]",40
5,"O=C(CCc1ccccc1)Nc1ccc(CN2C(=O)[C@H]3CCC[C@H]3N(C(=O)CN3C(=O)c4ccccc4C3=O)c3ccccc32)cc1 (relative stereo) [Example 17, (3aR*,10aS*)-9-[4-(3-Phenylpropionamido)benzyl]-4-(phthalimidoacetyl)-2,3,3a,4,9,10a-hexahydrobenzo[b]cyclopenta[e][1,4]diazepin-10(1H)-one]",500
6,"COc1cccc(C(=O)Nc2ccc(CN3C(=O)[C@H]4CCC[C@H]4N(C(=O)CN4C(=O)c5ccccc5C4=O)c4ccccc43)cc2)c1 (relative stereo) [Example 14, (3aR*,10aS*)-9-[4-(3-Methoxybenzamido)benzyl]-4-(phthalimidoacetyl)-2,3,3a,4,9,10a-hexahydrobenzo[b]cyclopenta[e][1,4]diazepin-10(1H)-one]",200
7,"O=C(NCc1ccccc1)Nc1ccc(CN2C(=O)[C@H]3CCC[C@H]3N(C(=O)CN3C(=O)C4=C(CCCC4)C3=O)c3ccccc32)cc1 (relative stereo) [Example 26, (3aR*,10aS*)-9-[4-(3-Benzylureido)benzyl]-4-(2H-1,3-dioxo-1,3,4,5,6,7-hexahydroisoindole-2-acetyl)-2,3,3a,4,9,10a-hexahydrobenzo[b]cyclopenta[e][1,4]diazepin-10(1H)-one]",40
8,"O=C(Nc1ccc(CN2C(=O)[C@H]3CCC[C@H]3N(C(=O)CN3C(=O)c4ccccc4C3=O)c3ccccc32)cc1)c1ccccc1F (relative stereo) [Example 8, (3aR*,10aS*)-9-[4-(2-Fluorobenzamido)benzyl]-4-(phthalimidoacetyl)-2,3,3a,4,9,10a-hexahydrobenzo[b]cyclopenta[e][1,4]diazepin-10(1H)-one]",300
9,"CCC(=O)Nc1ccc(CN2C(=O)[C@H]3CCC[C@H]3N(C(=O)CN3C(=O)c4ccccc4C3=O)c3ccccc32)cc1 (relative stereo) [Example 6, (3aR*,10aS*)-4-(Phthalimidoacetyl)-9-(4-propionamidobenzyl)-2,3,3a,4,9,10a-hexahydrobenzo[b]cyclopenta[e][1,4]diazepin-10(1H)-one]",800
10,"COc1ccc(CNC(=O)Nc2ccc(CN3C(=O)[C@H]4CCC[C@H]4N(C(=O)CN4C(=O)c5ccccc5C4=O)c4ccccc43)cc2)cc1 (relative stereo) [Example 32, (3aR*,10aS*)-9-[4-[3-(4-Methoxybenzyl)ureido]-benzyl]-4-(phthalimidoacetyl)-2,3,3a,4,9,10a-hexahydro-benzo[b]cyclopenta[e][1,4]diazepin-10(1H)-one]",40
11,"O=C(COc1ccccc1)Nc1ccc(CN2C(=O)[C@H]3CCC[C@H]3N(C(=O)CN3C(=O)c4ccccc4C3=O)c3ccccc32)cc1 (relative stereo) [Example 18, (3aR*,10aS*)-9-[4-(Phenoxyacetamido)benzyl]-4-(phthalimidoacetyl)-2,3,3a,4,9,10a-hexahydrobenzo[b]cyclopenta[e][1,4]diazepin-10(1H)-one]",600
12,"O=C(Nc1ccc(CN2C(=O)[C@H]3CCC[C@H]3N(C(=O)CN3C(=O)C4=C(CCCC4)C3=O)c3ccccc32)cc1)OCc1ccccc1 (relative stereo) [Example 2, (3aR*,10aS*)-9-[4-(Benzyloxycarbonylamino)benzyl]-4-(2H-1,3-dioxo-1,3,4,5,6,7-hexahydroisoindole-2-acetyl)-2,3,3a,4,9,10a-hexahydrobenzo[b]cyclopenta[e][1,4]diazepin-10(1H)-one]",70
13,"C[C@@H](NC(=O)Nc1ccc(CN2C(=O)[C@H]3CCC[C@H]3N(C(=O)CN3C(=O)c4ccccc4C3=O)c3ccccc32)cc1)c1ccccc1 (relative stereo) [Example 27, (3aR*,10aS*)-9-[4-[3-((R)-1-Phenylethyl)ureido]-benzyl]-4-(phthalimidoacetyl)-2,3,3a,4,9,10a-hexahydrobenzo[b]cyclopenta[e][1,4]diazepin-10(1H)-one]",20
14,"O=C(Nc1ccc(CN2C(=O)[C@H]3CCC[C@H]3N(C(=O)CN3C(=O)c4ccccc4C3=O)c3ccccc32)cc1)c1ccc2ccccc2c1 (relative stereo) [Example 21, (3aR*,10aS*)-9-[4-(2-Naphthoylamino)benzyl]-4-(phthalimidoacetyl)-2,3,3a,4,9,10a-hexahyrobenzo[b]cyclopenta[e][1,4]diazepin-10(1H)-one]",200
15,"C[C@H](NC(=O)Nc1ccc(CN2C(=O)[C@H]3CCC[C@H]3N(C(=O)CN3C(=O)c4ccccc4C3=O)c3ccccc32)cc1)c1ccccc1 (relative stereo) [Example 28, (3aR*,10aS*)-9-[4-[3-((S)-1-Phenylethyl)ureido]-benzyl]-4-(phthalimidoacetyl)-2,3,3a,4,9,10a-hexahydrobenzo[b]cyclopenta[e][1,4]diazepin-10(1H)-one]",300
16,"O=C(NCc1ccc(F)cc1)Nc1ccc(CN2C(=O)[C@H]3CCC[C@H]3N(C(=O)CN3C(=O)c4ccccc4C3=O)c3ccccc32)cc1 (relative stereo) [Example 31, (3aR*,10aS*)-9-[4-[3-(4-Fluorobenzyl)ureido]benzyl]-4-(phthalimidoacetyl)-2,3,3a,4,9,10a-hexahydrobenzo[b]-cyclopenta[e][1,4]diazepin-10(1H)-one]",30
17,"O=C(Nc1ccc(CN2C(=O)[C@H]3CCC[C@H]3N(C(=O)CN3C(=O)c4ccccc4C3=O)c3ccccc32)cc1)OCc1ccccc1 (relative stereo) [Example 1, (3aR*,10aS*)-9-[4-(Benzyloxycarbonylamino)benzyl]-4-(phthalimidoacetyl)-2,3,3a,4,9,10a-hexahydrobenzo[b]cyclopenta[e][1,4]diazepin-10(1H)-one]",100
